Laboratory results: patent publication US11426426B2, “Pharmaceutical composition for preventing or treating inflammatory diseases, containing nitrogen monoxide-sensitive acrylamide-based polymer” (POSTECH ACADEMY-INDUSTRY FOUNDATION, priority 2018, dated 2022)

How the values were obtained:
red blood cells = test: Evaluation of hemolysis; format: cell-based, mice; conditions: 1 mg/mL in DPBS; 1×10^8 mouse red blood cells; 4 hours at 37° C.; absorbance at 450 nm
Method: In order to check whether the nitric oxide-sensitive hydrogel has in vivo stability after being administered into the body, first, red blood cells were separated from the blood collected from mice. A DPBS solution including 1 mg/mL Example 1, the nitric oxide-cleavable crosslinker (NOCCL), and acrylamide was introduced into 1×10^8 cells of the red blood cells thus prepared, and the mixture was thoroughly mixed. This solution was left to stand for 4 hours in a constant temperature tank at 37° C. Next, the solution was centrifuged, subsequently the supernatant was transferred onto a 96-well plate, and the absorbance at 450 nm was measured to calculate the degree of hemolysis.

[1] = Nitric oxide scavenging ability (Griess reagent)
Method: In order to check whether the nitric oxide-cleavable crosslinker (NOCCL) produced according to Production Example 1 can actually scavenge nitric oxide, Griess reagent was used, and 100 μM nitric oxide and 10 μM nitric oxide were treated to check the scavenging ability of the nitric oxide-cleavable crosslinker. At this time, N,N′-methylene bisacrylamide (BIS) was used as a comparative group, and water was used as a control group.

In the case of `C=CC(N)=O` [acrylamide], the degree of hemolysis (red blood cells) is reported as “up to 99%”.
In the case of `C=CC(=O)Nc1ccc(NC(=O)C=C)c(N)c1` [nitric oxide-cleavable crosslinker, N,N-(2-amino-1,4-phenylene) diacrylamide], the degree of hemolysis (red blood cells) is reported as “did not cause hemolysis”, the “nitric oxide scavenged as compared to the comparative group” value ([1]; 100 μM and 10 μM nitric oxide, comparative group BIS) is reported as ≥ 30% and the “nitric oxide scavenging ability” value ([1]; high concentration (100 μM) of nitric oxide) is reported as ≥ 50%.
